In brackets after ≈: the same amount, converted by molar mass.
Assays:
human URAT1 = biological target: T1, human URAT1 (Homo sapiens, UniProt Q96S37); experiment: URAT1 inhibition: 14C-uric acid uptake in MDCK2 cells stably expressing human URAT1; format: cell-based; details: for IC50: read-out: IC50 (test substance concentration at which URAT1 was inhibited 50%) (converted); for URAT1 inhibition rate (result in words, FIGS. 1 to 4): test substance 1 to 200 μg/mL, uric acid uptake vs DMSO control
T1 construct: expressed in transfected cells
T1 sequence (Q96S37 1-553): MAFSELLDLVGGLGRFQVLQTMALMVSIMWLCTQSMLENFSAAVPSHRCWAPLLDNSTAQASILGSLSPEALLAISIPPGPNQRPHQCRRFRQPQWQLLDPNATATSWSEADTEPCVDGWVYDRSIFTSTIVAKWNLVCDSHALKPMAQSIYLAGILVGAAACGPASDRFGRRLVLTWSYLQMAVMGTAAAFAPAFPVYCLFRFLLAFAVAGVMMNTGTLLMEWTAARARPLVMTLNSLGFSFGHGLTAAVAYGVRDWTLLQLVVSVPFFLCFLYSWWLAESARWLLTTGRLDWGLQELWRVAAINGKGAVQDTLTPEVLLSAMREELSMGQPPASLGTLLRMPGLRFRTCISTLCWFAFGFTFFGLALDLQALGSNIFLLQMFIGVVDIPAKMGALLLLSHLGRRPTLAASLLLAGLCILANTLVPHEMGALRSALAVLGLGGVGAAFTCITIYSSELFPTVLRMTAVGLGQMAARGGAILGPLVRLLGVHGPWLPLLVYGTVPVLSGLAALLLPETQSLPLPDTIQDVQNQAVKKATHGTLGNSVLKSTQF
Method: Each test substance was dissolved in dimethyl sulfoxide (DMSO) and added to HBSS to give a test substance concentration of 1, 5, 10, 15, 20, 40, 60, 80, 100, or 200 μg/mL. […] Uric acid was added to HBSS to give a concentration of 20 μM. Subsequently, the cells were washed again with HBSS, and then dissolved in a 0.1 N sodium hydroxide aqueous solution. The radiation dose of 14 C in the solution was measured by a liquid scintillation counter, and the uptake amount of uric acid into the cells was measured. A positive control was provided by adding benzbromarone at 30 μM. A test substance non-addition group as a control was provided by adding only DMSO to HBSS (DMSO concentration: 1%). The tests were performed with n=3 for the control and for the test substances at each concentration. […] The uptake amount of uric acid was determined with an average of n=3. The calculation formula of the URAT1 inhibition rate (%) is as follows. The control group is the test substance non-addition group.
Inhibition rate (%)=100×{((uptake amount of uric acid in control group)−(uptake amount of uric acid in test substance addition group))/uptake amount of uric acid in control group}

[1] = high temperature of 100° C.; cited from earlier work
[2] = MDCK2 cells expressing human URAT1, 14C-uric acid 20 μM, 10 minutes, n=3

Row | SMILES | IC50 (human URAT1; [2]) | inhibition at 30 µM (human URAT1; MDCK2, read-out: URAT1 inhibition rate) | URAT1 inhibition rate (result in words, FIGS. 1 to 4) (human URAT1) | IC50 (test substance concentration at which URAT1 was inhibited 50%) (human URAT1; [2]) | Thermal stability [1]
1 | O=C1C[C@@H](c2ccc(O)c(O)c2)Oc2cc(O)cc(O)c21 [Eriodictyol, eriodictyol] | 43.5 µM | – | significant increase in the inhibition rate | – | –
2 | COc1ccc([C@@H]2CC(=O)c3c(O)cc(O[C@@H]4O[C@H](CO[C@@H]5O[C@@H](C)[C@H](O)[C@@H](O)[C@H]5O)[C@@H](O)[C@H](O)[C@H]4O)cc3O2)cc1O [Hesperidin, hesperidin] | – | – | significant increase in the inhibition rate | 16.97 µg/mL (≈ 27.8 µM) | –
3 | COc1cc(O)c(CC=C(C)C)c2c1C(=O)CC(c1ccc(O)cc1)O2 (centres unmarked) [Isoxanthohumol, isoxanthohumol] | 25.1 µM | – | significant increase in the inhibition rate | – | stable even at a high temperature of 100 °C
4 | COc1cc(O)c(CC=C(C)C)c(O)c1C(=O)/C=C/c1ccc(O)cc1 [xanthohumol, reference compound] | – | – | did not show a significant increase in the inhibition rate | – | –

Second part, led by results:

Row | IC50 (human URAT1; [2]) | inhibition at 30 µM (human URAT1; MDCK2, read-out: URAT1 inhibition rate) | SMILES | URAT1 inhibition rate (result in words, FIGS. 1 to 4) (human URAT1) | IC50 (test substance concentration at which URAT1 was inhibited 50%) (human URAT1; [2]) | Thermal stability [1]
5 | 41.9 µM | – | O=C1C[C@@H](c2ccc(O)cc2)Oc2cc(O)cc(O)c21 [Naringenin, naringenin] | significant increase in the inhibition rate | – | –
6 | – | 99 to 100% | CCc1oc2ccccc2c1C(=O)c1cc(Br)c(O)c(Br)c1 [benzbromarone, reference compound] | – | – | –
